Laboratory results taken from patent publication US20140066365A1, “USE OF CALIXARENES ASSOCIATED WITH AN ANTIBIOTIC IN THE TREATMENT OF BACTERIAL INFECTIONS” (priority 2011, published 2014).
In brackets after ≈: the same amount, converted by molar mass. Where two headings read alike, the source gives them in different places. Blank lines part the entries; values can stand above or below the molecule they belong to.

Columns and labels:
[1] = tested on: Escherichia coli strain ATCC 25922 (wild type); experiment: MIC of the compounds used alone, microdilution in a liquid medium (CLSI); assay type: cell-based; conditions: Escherichia coli
Excerpt: (§1) The MICs of the antibiotics were previously defined for each strain, by the method of microdilution in a liquid medium (CLSI (Clinical and Laboratory Standards Institute), 2003).

[2] = tested on: Staphylococcus aureus strain ATCC 29213 (wild type); experiment: as above; assay type: cell-based; conditions: Staphylococcus aureus
Excerpt: as §1

[3] = tested on: Pseudomonas aeruginosa strain ATCC 27853 (wild type); experiment: as above; assay type: cell-based; conditions: Pseudomonas aeruginosa, ATCC27853, read-out: Initial MICs (mg/L), antiseptic (ATS)
Excerpt: as §1

[4] = as above; assay type: cell-based, Staphylococcus aureus; conditions: Staphylococcus aureus, MRSA
Excerpt: as §1

[5] = tested on: MRSA strain having a resistance to the aminoglycosides and fluoroquinolones (SaR3); experiment: as above; assay type: cell-based, Staphylococcus aureus; conditions: Staphylococcus aureus, MRSA
Excerpt: as §1

[6] = tested on: MRSA strain without associated resistance (SaR1); experiment: as above; assay type: cell-based, Staphylococcus aureus; conditions: Staphylococcus aureus, MRSA
Excerpt: as §1

[7] = tested on: SaR1: Meticillin-Resistant Staphylococcus aureus without Associated Resistance; experiment: Antibiogram, MIC by the VITEK 2 system; assay type: cell-based; conditions: for CA-SFM Interpretation: Cc CA-SFM 2011; for CLSI Interpretation: Cc CLSI 2011; for EUCAST Interpretation: Cc EUCAST 2011; for Results: from MIC
Protocol: (§2) The bacterial and antibiogramidentification is carried out by the VITEK 2 system (bioMérieux)

[8] = tested on: SaR3: Meticillin-Resistant Staphylococcus aureus; experiment: Antibiogram by the disk diffusion technique; assay type: cell-based; conditions: for CA-SFM Interpretation: Cd CA-SFM 2011; for Results: Table E1, against Dmin Dmax; for diameter in mm: Table E2
Protocol: (§3) The bacterial and antibiogramidentification is carried out by the VITEK 2 system (bioMérieux) and by the disk diffusion technique

[9] = tested on: SaR4: Meticillin-Resistant Staphylococcus aureus; experiment: Antibiogram, MIC by the VITEK 2 system; assay type: cell-based; conditions: for MIC: Staphylococcus aureus
Protocol: as §3

[10] = tested on: SaR1: Meticillin-Resistant Staphylococcus aureus without Associated Resistance; experiment: Antibiogram, inhibition diameter (Table D1); assay type: cell-based; conditions: for Results: from diameter, against Dmin Dmax
Protocol: as §2

[11] = tested on: EcR1: Penicillinase-Producing Escherichia coli without Associated Resistance; experiment: Antibiogram, MIC by the VITEK 2 system; assay type: cell-based; conditions: for MIC: Escherichia coli
Protocol: (§4) 5.1 EcR1: Penicillinase-Producing Escherichia coli without Associated Resistance The bacterial and antibiogramidentification is carried out by the VITEK 2 system (bioMérieux) and by the disk diffusion technique.

[12] = tested on: EcR1: Penicillinase-Producing Escherichia coli without Associated Resistance; experiment: Antibiogram by the disk diffusion technique; assay type: cell-based; conditions: Table A1
Protocol: as §4

[13] = tested on: ESBL-producing strain of Escherichia coli, having an associated resistance to the aminoglycosides (EcR3); experiment: MIC of the compounds used alone, microdilution in a liquid medium (CLSI); assay type: cell-based; conditions: Escherichia coli, antibiotic alone (second value of cell), read-out: Initial MICs
Excerpt: as §1

[14] = tested on: penicillinase-producing strain of Escherichia coli without associated resistance (EcR1); experiment: as above; assay type: cell-based; conditions: Escherichia coli, antibiotic alone (second value of cell), read-out: Initial MICs
Excerpt: as §1

[15] = tested on: cephalosporinase-hyperproducing strain of Escherichia coli (EcR2); experiment: as above; assay type: cell-based; conditions: Escherichia coli, antibiotic alone (second value of cell), read-out: Initial MICs
Excerpt: as §1

[16] = tested on: EcR2: Cephalosporinase-Hyperproducing Strain of Escherichia coli; experiment: Antibiogram by the disk diffusion technique; assay type: cell-based
Protocol: The bacterial and antibiogramidentification is carried out by the VITEK 1 system (bioMérieux) and by the disk diffusion technique

[17] = tested on: EcR3: ESBL-Producing Escherichia coli; experiment: Antibiogram by the disk diffusion technique; assay type: cell-based
Protocol: The bacterial and antibiogramidentification is carried out by the VITEK 2 system (bioMerieux) and by the disk diffusion technique

Structure (SMILES): N=C(N)c1ccc(OCCCCCCOc2ccc(C(=N)N)cc2)cc1 [Hexamidine]
- MIC ([1]; ATCC25922, read-out: Initial MICs (mg/L), antiseptic (ATS)): 8 mg/L
- MIC ([2]; ATCC29213, read-out: Initial MICs (mg/L), antiseptic (ATS)): < 1 mg/L
- MIC [3]: 32 mg/L

Structure (SMILES): CN[C@H](CC(C)C)C(=O)N[C@H]1C(=O)N[C@@H](CC(N)=O)C(=O)N[C@H]2C(=O)N[C@H]3C(=O)N[C@H](C(=O)N[C@H](C(=O)O)c4cc(O)cc(O)c4-c4cc3ccc4O)[C@H](O)c3ccc(c(Cl)c3)Oc3cc2cc(c3O[C@@H]2O[C@H](CO)[C@@H](O)[C@H](O)[C@H]2O[C@H]2C[C@](C)(N)[C@H](O)[C@H](C)O2)Oc2ccc(cc2Cl)[C@H]1O [Vancomycin]
- MIC [4]: 0.25 µg/mL
- MIC [5]: 0.25 µg/mL
- MIC [6]: 0.25 µg/mL
- CA-SFM Interpretation ([7]; SaR1): Susceptible
- CLSI Interpretation ([7]; SaR1): Susceptible
- EUCAST Interpretation ([7]; SaR1): Susceptible
- Results ([7]; SaR1, Table D1): Susceptible
- MIC mg/L ([7]; SaR1, Table D2): ≦1 mg/L
- MIC ([7]; Staphylococcus aureus, read-out: MIC mg/L): ≤ 1 mg/L
- CA-SFM Interpretation [8]: Susceptible
- Results [8]: Susceptible
- diameter in mm [8]: 28 mm
- MIC ([2]; ATCC29213, read-out: Initial MICs (mg/L)): 0.5 mg/L
- Results ([9]; SaR4, Table F1, MIC): Susceptible
- CA-SFM Interpretation ([9]; SaR4, from MIC, Cc CA-SFM 2011): Susceptible
- CLSI Interpretation ([9]; SaR4, from MIC, Cc CLSI 2011): Susceptible
- EUCAST Interpretation ([9]; SaR4, from MIC, Cc EUCAST 2011): Susceptible
- MIC [9]: 1 mg/L (≈ 0.69 µM)
- MIC ([9]; read-out: MIC mg/L): 1 mg/L (≈ 0.69 µM)
- Results [10]: Susceptible

Structure (SMILES): CC(=O)NC[C@H]1CN(c2ccc(N3CCOCC3)c(F)c2)C(=O)O1 [Linezolid]
- MIC ([4]; antibiotic alone (second value of cell), SaR4, read-out: MIC): 2 µg/mL
- MIC ([5]; antibiotic alone (second value of cell), SaR3, read-out: MIC): 2 µg/mL
- MIC ([6]; antibiotic alone (second value of cell), SaR1, read-out: MIC): 2 µg/mL
- CA-SFM Interpretation ([7]; SaR1): Susceptible
- CLSI Interpretation ([7]; SaR1): Susceptible
- EUCAST Interpretation ([7]; SaR1): Susceptible
- Results ([7]; SaR1, Table D1): Susceptible
- MIC ([7]; SaR1, Table D2): 2 mg/L (≈ 5.93 µM)
- MIC ([7]; Staphylococcus aureus, SaR1, Table D1, read-out: MIC): 2 mg/L (≈ 5.93 µM)
- CA-SFM Interpretation [8]: Susceptible
- CLSI Interpretation ([8]; Cd CLSI 2011): Susceptible
- EUCAST Interpretation ([8]; Cd EUCAST 2011): Susceptible
- Diameter ([8]; Table E1): 26 mm
- Results [8]: Susceptible
- diameter in mm [8]: 26 mm
- MIC ([2]; ATCC29213, antibiotic alone (second value of cell), S. aureus ATCC 29213, read-out: Initial MICs): 2 mg/L
- Diameter [10]: 29 mm
- Results [10]: Susceptible

- MIC ([11]; EcR1, Table A2, read-out: MIC mg/L (diameter in mm)): ≤ 1 mg/L
- MIC ([11]; EcR1, VITEK 2, Table A1, read-out: MIC): ≤ 1 mg/L
- MIC [13]: 128 µg/mL
- MIC [14]: 0.06 µg/mL
- MIC [15]: 4 µg/mL
- MIC ([1]; ATCC25922, antibiotic alone (second value of cell), E. coli ATCC 25922, read-out: Initial MICs): 0.06 mg/L
Structure (SMILES): CO/N=C(\C(=O)N[C@@H]1C(=O)N2C(C(=O)O)=C(COC(C)=O)CS[C@H]12)c1csc(N)n1 [Cefotaxime]
- CA-SFM Interpretation ([11]; EcR1, MIC against Cc CA-SFM 2011): Susceptible
- CLSI Interpretation ([11]; EcR1, MIC against Cc CLSI 2011): Susceptible
- EUCAST Interpretation ([11]; EcR1, MIC against Cc EUCAST 2011): Susceptible
- Results ([11]; EcR1, interpretation of the MIC, Table A1): Susceptible
- Diameter ([12]; EcR1, disk diffusion): 30 mm
- Results ([12]; EcR1, interpretation of the diameter against Dmin Dmax): Susceptible
- Diameter ([16]; EcR2, disk diffusion, Table B1): 24
- Results ([16]; EcR2, rows that print a diameter, Table B1): Intermediate
- Diameter ([16]; EcR2, Table B2, diameters): 24 mm
- CA-SFM Interpretation ([16]; EcR2, from diameter, CA-SFM 2011): Intermediate
- CLSI Interpretation ([16]; EcR2, from diameter, CLSI 2011): Intermediate
- EUCAST Interpretation ([16]; EcR2, from diameter, EUCAST 2011): Resistant
- CA-SFM Interpretation ([17]; Cd CA-SFM 2011): Resistant
- CLSI Interpretation ([17]; Cd CLSI 2011): Resistant
- EUCAST Interpretation ([17]; Cd EUCAST 2011): Intermediate
- Diameter ([17]; Table C1): 19 mm
- Results ([17]; Table C1, against Dmin Dmax): Intermediate
- diameter in mm ([17]; Table C2): 19 mm
